Experimental data from paper PMC5040960, “A single molecule assay to probe monovalent and multivalent bonds between hyaluronan and its key leukocyte receptor CD44 under force” (Scientific Reports, 2016).

Molecular target: T1, streptavidin (SAv) (Streptomyces avidinii, UniProt P22629)
T1 construct: commercial lyophilized streptavidin (Sigma Aldrich), homotetramer, immobilised as monolayer on biotinylated OEG
Experiment: AFM single molecule force spectroscopy, Bell-Evans fit
Type: binding
Details: labelled compound (biotin tethered to AFM tip by PEG linker and thiol-gold bond); koff extrapolated to zero force; 10 mM HEPES pH 7.4, 150 mM NaCl, ambient temperature
Excerpt: AFM single molecule force spectroscopy, Bell-Evans fit on streptavidin (SAv)

T1 sequence (P22629 25-183): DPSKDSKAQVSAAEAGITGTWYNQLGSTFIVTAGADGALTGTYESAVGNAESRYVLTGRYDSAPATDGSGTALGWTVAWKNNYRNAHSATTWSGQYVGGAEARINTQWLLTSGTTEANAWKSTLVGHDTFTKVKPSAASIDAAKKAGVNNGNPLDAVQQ

## biotin
  koff: 1.40 ± 0.59 s⁻¹
